Experimental data from US6361805B1, “Method of preparation and composition of a water soluble extract of the plant species uncaria for enhancing immune, anti-inflammatory, anti-tumor and DNA repair processes of warm blooded animals” (priority 1997, dated 2002).

Test system: HL-60 cells
Experiment: Induction of apoptosis, scored by phase contrast morphological criteria
Type: cell-based, human
Conditions: HL-60, 100 μM hydrogen peroxide positive control, 0-72 hours
Method: FIG. 2. Time course of apoptosis in HL-60 cells induced by C-MED-100 extract (Example 1) as compared to negative (no treatment) or positive (100 μM H2O2 exposure) controls.
For the purpose of evaluating apoptosis in vitro, human leukemic HL-60 cells were cultured at a density of 0.5×10^6 cells per milliliter in 10% calf serum supplemented RPMI medium in a 5% CO2 atmosphere at 37° C. for 48 hours. The cells were harvested by centrifugation and resuspended in a fresh medium at a concentration of 1-2×10^6 cells per milliliter in 15 milliliter Falcon test tubes for bioassay purposes. Next the cells were exposed to either 100 μM hydrogen peroxide as a positive control or 397 μg per milliliter C-Med-100 extract prepared according to Example 1 or no exposure for 0-72 hours at 37° C. Samples of cells were taken from the cultures at the time periods indicated in FIG. 2 and the % apoptosis in the total cells counted were analyzed and scored by phase contrast morphological criteria.

Compound: OO [Hydrogen peroxide]
- apoptotic cells over time: massive cell death by apoptosis within 24 hours
